Measured values as given in patent US12168763B2, “Microorganisms and methods for reducing bacterial contamination” (Melio Peptide Systems Inc., priority 2020, dated 2024).

Tests used:
[1] = test system: L. fermentum CCUG 72619; format: cell-based, Lactobacillus fermentum
[2] = test system: L. delbrueckii; test: Small-scale mock ethanol fermentation contaminated with L. delbrueckii; format: cell-based, Lactobacillus delbrueckii; conditions: 72 hours; contamination OD600 0.00005-0.05; virginiamycin 2 mg/L
Method: (§1) Small-scale mock ethanol fermentations were carried out in 2 mL microcentrifuge tubes with a venting hole in the cap made with a 30 gauge needle. Starter cultures of yeast were grown in YPD at 30° C. with agitation. Starter cultures of L. fermentum CCUG 72619 were grown in MRS at 37° C. without agitation. […] . Control fermentations contained 2 mg/L virginiamycin. The fermentations were incubated at 30° C. without agitation for 72 hours and then analyzed by HPLC.
(§2) . M2 wild-type with and without virginiamycin, M2-pPedA, M2-pPedA-K1A, M2-pPedA-K1A/T22A, and M2-pPedA-K1T were compared (FIGS. 14A-14D, 15A-15D). […] . The pediocin-expressing strains were not effective at completely preventing the lactic acid production by L. delbrueckii or P. pentosaceus. […] .

[3] = test system: P. pentosaceus; test: Small-scale mock ethanol fermentation contaminated with P. pentosaceus; format: cell-based, Pediococcus pentosaceus; conditions: 72 hours; contamination OD600 0.00005-0.05; virginiamycin 2 mg/L
Method: as §1, §2

[4] = test system: Lactobacillus plantarum; test: Soft-agar overlay screen of peptide-expressing yeast, other lactic acid bacteria; format: cell-based
[5] = test system: Lactobacillus brevis; test: as above; format: cell-based
[6] = test system: Lactobacillus casei; test: as above; format: cell-based; conditions: sometimes weak
[7] = test system: L. delbrueckii CCUG 34222; test: Soft-agar overlay screen of peptide-expressing yeast (BY4742)
[8] = test system: W. confusa CCUG30113; test: as above
[9] = test system: Pediococcus damnosus; test: Soft-agar overlay screen of peptide-expressing yeast, other lactic acid bacteria; format: cell-based
[10] = test system: Lactobacillus amylovorus; test: as above; format: cell-based; conditions: sometimes weak
[11] = test system: P. pentosaceus NCCB 31016; test: Soft-agar overlay screen of peptide-expressing yeast (BY4742)
[12] = test system: Leuconostoc mesenteroides subsp. mesenteroides; test: Soft-agar overlay screen of peptide-expressing yeast, other lactic acid bacteria; format: cell-based
[13] = test system: Pediococcus acidilactici; test: as above; format: cell-based
[14] = test system: W. confusa CCUG30943; test: Soft-agar overlay screen of peptide-expressing yeast (BY4742)
[15] = test system: L. reuteri CCUG 32624; test: as above
[16] = test system: Lactococcus lactis subsp. cremoris; test: Soft-agar overlay screen of peptide-expressing yeast, other lactic acid bacteria; format: cell-based
[17] = test system: Lactobacillus delbrueckii subsp. delbrueckii; test: as above; format: cell-based
[18] = test system: L. lactis NCCB 26066; test: Soft-agar overlay screen of peptide-expressing yeast (BY4742)
[19] = test system: E. faecium NCCB 86023; test: as above

| Substance | Variability in residual glucose [1] | Lactic acid production by L. delbrueckii [2] | Lactic acid production by P. pentosaceus [3] | Antibacterial activity against Lactobacillus plantarum [4] | Antibacterial activity against Lactobacillus brevis [5] | Antibacterial activity against Lactobacillus casei [6] | Inhibition, L. delbrueckii CCUG 34222 [7] | Inhibition, W. confusa CCUG30113 [8] | Antibacterial activity against Pediococcus damnosus [9] | Antibacterial activity against Lactobacillus amylovorus [10] | Growth inhibition zones of P. pentosaceus ([11]; FIG. 7, BY4742 with pHVXU-pedA, 30° C., 1 day) | Inhibition, P. pentosaceus NCCB 31016 ([11]; soft-agar overlay, peptide-expressing yeast) | Antibacterial activity against Leuconostoc mesenteroides subsp. mesenteroides [12] | Antibacterial activity against Pediococcus acidilactici [13] | Inhibition, W. confusa CCUG30943 [14] | Inhibition, L. reuteri CCUG 32624 [15] | Antibacterial activity against Lactococcus lactis subsp. cremoris [16] | Antibacterial activity against Lactobacillus delbrueckii subsp. delbrueckii [17] | Inhibition, L. lactis NCCB 26066 [18] | Inhibition, E. faecium NCCB 86023 [19] |
| --- | --- | --- | --- | --- | --- | --- | --- | --- | --- | --- | --- | --- | --- | --- | --- | --- | --- | --- | --- | --- |
| virginiamycin | tended to be reduced | effective at preventing the lactic acid production | effective at preventing the lactic acid production |  |  |  |  |  |  |  |  |  |  |  |  |  |  |  |  |  |
| Pediocin PA-1 from [Pediococcus acidilactici] (KYYGNGVTCGKHSCSVDWGKATTCIINNGAMAWATGGHQGNHKC; listed as Pediococcus acidilactici) |  |  |  | showed antibacterial activity | showed antibacterial activity | showed some antibacterial activity | + | − | showed antibacterial activity | showed some antibacterial activity | Growth inhibition zones of P. pentosaceus are observable | + | showed antibacterial activity | showed antibacterial activity | − | − | showed antibacterial activity | showed antibacterial activity | + | + |
